In patent US11298409B2, “Mutant huntingtin-mediated protein dysfunction” (UNIVERSITY OF PITTSBURGH—OF THE COMMONWEALTH SYSTEM OF …, priority 2014, dated 2022):
Where two headings read alike, the source gives them in different places. One block for each compound: values may come before it. No end group written: not given here.

Legend:
[1] = system: pOTC import into mitochondria isolated from striatal cells; experiment: pOTC import assay with mitochondria from striatal cells plus uncoupler; type: biochemical; details: added to mitochondria before starting the import reaction
Procedure: The assay was performed as previously described (52,53).

[2] = system: TIM23 complex (Tim17a, Tim23 and Tim50); experiment: GST pull-down with mitochondria isolated from ST14A striatal cells and mouse brain; type: binding, rat
Procedure: Extracts were spun at 14,000 r.p.m. at 4° C., and clarified supernatants were incubated with glutathione 4B Sepharose beads (GE Healthcare) at 4° C. overnight. The glutathione beads were then washed extensively with ice-cold TNE buffer, and bound proteins were subjected to SDS-PAGE followed by immunoblotting analysis. For the samples subjected to mass spectrometry, glutathione bead-bound proteins from equal amounts (600 μg) of mitochondria were further washed with high stringency RIPA buffer following TNE buffer wash to decrease nonspecific interaction. Proteins were then eluted from the glutathione beads in SDS sample buffer, separated by SDS-PAGE and stained with Coomassie. Proteins in the gel were digested with trypsin and analyzed by mass spectrometry (LC-MS/MS) at the Taplin Biological Mass Spectrometry Facility (Harvard Medical School, Boston, Mass.).
We therefore performed GST pull-down assays using purified GST-Httex1-97Q, GST-Httex1-97Q-ΔN17, which lacks the N17 sequence, and GST-N17 with mitochondria isolated from ST14A striatal cells and mouse brain.

[3] = target: T1, Tim23 (Mus musculus, UniProt Q9WTQ8); experiment: GST pull down assay with purified Tim proteins; type: binding
T1 construct: GST (N, cleaved yes); made in house; host or cells: E. coli BL21star (DE3)
T1 sequence (Q9WTQ8 1-209): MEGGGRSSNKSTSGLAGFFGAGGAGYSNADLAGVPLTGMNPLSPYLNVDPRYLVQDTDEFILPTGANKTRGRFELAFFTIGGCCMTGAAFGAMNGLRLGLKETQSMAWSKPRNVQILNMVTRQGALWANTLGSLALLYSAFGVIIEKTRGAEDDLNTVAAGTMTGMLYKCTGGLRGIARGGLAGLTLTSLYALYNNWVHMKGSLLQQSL
Procedure: Mouse Timm23, Timm50, Timm17A, and Timm17B cDNA were subcloned into the GST-Httex1 vector and transformed into BL21star (DE3) cells (Life Technologies). GST-Tim23, GST-Tim50, GST-Tim17A, and GST-Tim17B fusion proteins were purified from the cells by using glutathione 4B Sepharose beads (GE Healthcare) to bind the fusion proteins. To purify Tim proteins from GST, the GST fusion protein-bead complexes were digested with thrombin protease (GE Healthcare) at 25° C. overnight, and eluted with PBS. The eluted proteins were concentrated in PBS using AmiconUltra-10K centrifugal filters (Millipore).
GST-Htt exon 1 proteins and GST removed Tim proteins were incubated with glutathione 4B Sepharose beads (GE Healthcare) at 4° C. overnight. The glutathione beads were then washed extensively with ice-cold PBS, and bound proteins were subjected to SDS-PAGE followed by immunoblotting analysis.

[4] = system: primary cortical and striatal neurons; experiment: cell death assay by nuclear morphology in Tom40 RNAi-transfected primary neurons; type: cell-based, mouse; details: 20 μM
Procedure: Mouse primary cortical and striatal neurons from embryonic day (E) 15.5 Swiss Webster mouse fetuses were cultured in plating medium (minimal essential medium (MEM), 10% FBS, 0.45% glucose, 1 mM sodium pyruvate, 2 mM glutamine and penicillin/streptomycin) for 3 h and then maintained in serum-free Neurobasal medium containing B27 supplement (Life Technologies), 0.5 mM glutamine and 25 μM glutamate for the first 3 d in a humidified incubator (37° C. in 5% CO2). Half of the medium was replaced with Neurobasal medium with B27 and 0.5 mM glutamine every 3 d. […] Viral copy number was adjusted for transduction of neurons on the basis of titer measured using the Lenti-X qRT-PCR titration kit (Clontech). […]
Primary neurons infected with Tim23 shRNA or control luciferase shRNA lentivirus at DIV 5 were fixed 7 d after infection. Nuclei were stained with Hoechst 33342, and neurons were assessed in a blinded fashion for cell death by scoring condensed or fragmented nuclei. Primary neurons plated in a 24-well plate were transfected with Tom40 shRNA or control pBSU6 plasmid along with β-gal expression plasmid at DIV 5, fixed 3 d after transfection and subjected to indirect immunofluorescence with anti-β-gal antibody and nuclear DAPI staining. β-gal-positive neurons were assessed for cell death as described above. […]

[5] = system: WT primary cortical neurons; details: 10 μM
Procedure: Primary cortical neurons were prepared from R6/2 and WT littermate embryos at E15.5. Neurons prepared from each embryo were plated into separate dishes. […] Primary cortical neurons were incubated with the indicated concentrations of H2O2 for 1 day, and neuronal death was analyzed by lactate dehydrogenase (LDH) assay (11c). Data (11b, 11c) are presented as mean+s.e.m.

[6] = system: mitochondrial protein import in primary cortical neurons; details: 10 μM, 2 h
Procedure: Neurons obtained from each embryo were cultured separately on poly-1-lysine-coated plates and subjected to in vitro pOTC import assay on DIV 7-8.
Pre-ornithine transcarbamylase (pOTC) cDNA in pGEM-3Zf(+)-pOTC plasmid, which was kindly provided by M. Yano (Kumamoto University, Kumamoto, Japan), was transcribed and translated in vitro using the TNT-coupled reticulocyte lysate system (Promega) in the presence of 1-[^35S]methionine (PerkinElmer). Following translation, [35 S]methionine-labeled pOTC was incubated with isolated mitochondria at 25° C. for the indicated times, and mitochondria containing imported OTC were collected by centrifugation (9,000 g, 10 min) and subjected to SDS-PAGE. The radioactive polypeptides on the gel were visualized by fluorography with Amplify (GE Healthcare) followed by exposure to X-ray film. Cleaved mature OTC (mOTC), which represents the completion of import into the mitochondrial matrix and migrates faster than pOTC on SDS-PAGE, was quantified by ImageJ (NIH). The data are presented as the percentage of mOTC compared to input (total [^35S]pOTC amount added to each reaction) and scaled to imported mOTC in control mitochondria after the maximum reaction time (set equal to 1) unless otherwise specified. […]

Compound: O=[N+]([O-])c1ccc(O)c([N+](=O)[O-])c1 [2,4-dinitrophenol]
effect on pOTC import [1]: blocks import

binding to Tim23 in pull down [3]: did not bind
Compound: GST-N17: GST tagged N terminal 17 amino acids of Huntingtin protein (MATLEKLMKAFESLKSF; also: GST tagged, side not given here)
interaction with Tim17a, Tim23 and Tim50 in pull-down [2]: little, if any, interaction

Compound: CC(C)[C@H](NC(=O)c1ccc2ccccc2n1)C(=O)N[C@@H](CC(=O)O)C(=O)COc1c(F)cccc1F [qVD-OPh]
effect on Tom40 RNAi-induced neuronal death [4]: partially but significantly inhibited

Compound: OO [hydrogen peroxide]
effect on survival [5]: does not affect | effect on mitochondrial protein import vs vehicle ([6]; R6/2 neurons): significantly decreased import | effect on mitochondrial protein import vs vehicle ([6]; WT neurons): little to no effect
